The record followed here is ChEMBL document CHEMBL1201862, “PubChem BioAssay data set” (2004).

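Protocol summary: plate cells (96-well), add compound at 5 concentrations, incubate 48 h, interpolate endpoints linearly. Here, GI50 denotes the concentration required for 50% inhibition of growth.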 Calls of active or inactive are those of the source. Rule as the data show it: active = GI50 up to about 1.1 µM and inactive = higher.

Among the test systems are UACC-257; UACC-62; DU-145; MDA-MB-435; Hs-578T; 786-0; MCF7; SNB-75; COLO 205; SF-295; K562; SF-539; SK-OV-3; SW-620; SNB-19; EKVX; OVCAR-8; NCI-H522; LOX IMVI; Malme-3M.
Experiment in all cases: NCI-60 cell line screen, 48 h

Consider `Oc1ccc(CNCc2ccccc2)c2cccnc12`, for which the GI50 in the assay on UACC-257 is 0.262 µM (active); in the assay on UACC-62, 0.5 µM (active); in the assay with DU-145 it was 0.0452 µM (active); in the assay with MDA-MB-435 it was 0.0841 µM (active); with Hs-578T, 0.243 µM (active); with 786-0, 0.383 µM (active). Besides, the GI50 is 0.11 µM (active) in the assay with MCF7; 0.0291 µM (active) with SNB-75; 2.65 µM (inactive) in the assay with COLO 205; 0.144 µM (active) in the assay with SF-295; 0.138 µM (active) in the assay on K562; 0.34 µM (active) with SF-539. In addition, the GI50 is 0.542 µM (active) in the assay on SK-OV-3; 0.356 µM (active) in the assay with SW-620; 0.211 µM (active) in the assay with SNB-19; 0.495 µM (active) with EKVX; 0.107 µM (active) with OVCAR-8; 0.222 µM (active) in the assay with NCI-H522. The GI50 in the assay on LOX IMVI was 0.0308 µM (active); in the assay with Malme-3M, 0.321 µM (active).

As for `CN(CCN(C)Cc1ccc(Cl)c(Cl)c1)CCN1CCCC1`, the GI50 is 9.16 µM (inactive) in the assay with UACC-257; 2.79 µM (inactive) in the assay on UACC-62; 61.2 µM (inactive) in the assay with DU-145; 7.82 µM (inactive) in the assay on MDA-MB-435; 9.04 µM (inactive) in the assay with Hs-578T; 17.1 µM (inactive) in the assay with 786-0. The GI50 in the assay with MCF7 was 28.4 µM (inactive); in the assay on SNB-75, 26 µM (inactive); in the assay with COLO 205, 19.2 µM (inactive); with SF-295 it was 26.1 µM (inactive); with K562, 9.16 µM (inactive); in the assay with SF-539, 19.6 µM (inactive). Also, the GI50 is 71.9 µM (inactive) with SK-OV-3; 24.3 µM (inactive) in the assay with SW-620; > 49.3 µM (inactive) with SNB-19; > 64 µM (inactive) in the assay on EKVX; 20.1 µM (inactive) with OVCAR-8; 19.6 µM (inactive) in the assay on NCI-H522. Further, the GI50 with LOX IMVI is 13.4 µM (inactive); in the assay with Malme-3M it was 19.7 µM (inactive).

In the case of `Cc1cc(=O)oc2c(CNC(C)C(=O)O)c(O)ccc12` (stereo not given), the GI50 in the assay on UACC-257, in the assay on UACC-62, in the assay on DU-145, in the assay on MDA-MB-435, in the assay with Hs-578T and with 786-0 was > 100 µM (inactive) each time. Moreover, the GI50 in the assay with MCF7, in the assay on SNB-75, in the assay on COLO 205, in the assay with SF-295, with K562 and in the assay on SF-539 was > 100 µM (inactive) each time. Moreover, the GI50 with SK-OV-3, in the assay with SW-620, with SNB-19, with EKVX, in the assay with OVCAR-8 and with NCI-H522 was > 100 µM (inactive) in each case. Besides, the GI50 in the assay on LOX IMVI and in the assay on Malme-3M was > 100 µM (inactive) in each case.

`CN(NC(=O)CCCl)C1=NCCN1`: the GI50 with UACC-257, in the assay on UACC-62, with DU-145, with MDA-MB-435, in the assay with Hs-578T and with 786-0 was > 100 µM (inactive) each time. For the same compound, the GI50 in the assay on MCF7, in the assay with SNB-75, in the assay with COLO 205, with SF-295, in the assay with K562 and with SF-539 was > 100 µM (inactive) in each case. For the same compound, the GI50 in the assay with SK-OV-3, with SW-620, with SNB-19, with EKVX, with OVCAR-8 and in the assay with NCI-H522 was > 100 µM (inactive) in each case. The GI50 with LOX IMVI and with Malme-3M was > 100 µM (inactive) each time.

Take `c1ccc(-c2cnc3nc4ccccc4nc3n2)cc1`: the GI50 in the assay with UACC-257 was 2.25 µM (inactive); in the assay with UACC-62, 2.85 µM (inactive); in the assay with DU-145, 3.83 µM (inactive); with MDA-MB-435, 1.58 µM (inactive); in the assay on Hs-578T, 3.78 µM (inactive); with 786-0, 3.9 µM (inactive). In addition, the GI50 is 1.82 µM (inactive) with MCF7; 2.66 µM (inactive) in the assay with SNB-75; 2.15 µM (inactive) in the assay with COLO 205; 6.11 µM (inactive) in the assay with SF-295; 2.51 µM (inactive) with K562; 3.25 µM (inactive) with SF-539. In addition, the GI50 in the assay with SK-OV-3 is 2.87 µM (inactive); with SW-620, 2.81 µM (inactive); with SNB-19, 13.7 µM (inactive); in the assay on EKVX it was 2.88 µM (inactive); with OVCAR-8 it was 1.98 µM (inactive); in the assay on NCI-H522 it was 3.5 µM (inactive). The figures for the GI50 with LOX IMVI and in the assay with Malme-3M were 3.25 µM (inactive) and 2.45 µM (inactive), respectively.

On to `CN(C)CCNC(=O)Cn1ccc(=O)c2c([N+](=O)[O-])cccc21`, for which the GI50 in the assay with UACC-257, with UACC-62, in the assay on DU-145, with MDA-MB-435, with Hs-578T and in the assay with 786-0 was > 100 µM (inactive) in each case. Moreover, the GI50 in the assay with MCF7, in the assay with SNB-75, in the assay on COLO 205, in the assay with SF-295, in the assay on K562 and in the assay with SF-539 was > 100 µM (inactive) in each case. Also, the GI50 in the assay with SK-OV-3, in the assay with SW-620, with SNB-19, in the assay on EKVX, in the assay on OVCAR-8 and in the assay on NCI-H522 was > 100 µM (inactive) each time. Also, the GI50 with LOX IMVI and with Malme-3M was > 100 µM (inactive) each time.

On to `OC1C2CCCCN2C[C@@H](O)[C@H]1O` (stereo not given in full), for which the GI50 in the assay on UACC-257, with UACC-62, in the assay with DU-145, with MDA-MB-435, in the assay on Hs-578T and with 786-0 was > 100 µM (inactive) each time. The GI50 in the assay on MCF7, in the assay with SNB-75, in the assay with COLO 205, in the assay with SF-295, in the assay with K562 and with SF-539 was > 100 µM (inactive) throughout. Besides, the GI50 in the assay on SK-OV-3 was > 100 µM (inactive); in the assay with SW-620, > 100 µM (inactive); in the assay with SNB-19, > 100 µM (inactive); in the assay with EKVX, > 100 µM (inactive); in the assay on OVCAR-8, > 100 µM (inactive); in the assay with NCI-H522, 76.6 µM (inactive). Besides, the GI50 in the assay with LOX IMVI and in the assay on Malme-3M was > 100 µM (inactive) in each case.
